Source: PMC5218480 (PLoS ONE, 2017)

System: MV-4-11 cells
Assay: Gene expression microarray analysis (Affymetrix PrimeView) and GSEA
Assay type: cell-based, human
Parameters: RFU PODN (11730768_x_at) / Fold change /veh PODN (11730768_x_at) / RFU LINC00158 (11744669_a_at) / Fold change /veh LINC00158 (11744669_a_at) / RFU DUSP10 (11751237_a_at) / Fold change /veh DUSP10 (11751237_a_at) / RFU ID3 (11757404_x_at) / Fold change /veh ID3 (11757404_x_at) / RFU PLEKHG5 (11737974_s_at) / Fold change /veh PLEKHG5 (11737974_s_at) / RFU LRRC4B (11730491_at) / Fold change /veh LRRC4B (11730491_at) / RFU GIMAP4 (11747438_a_at) / Fold change /veh GIMAP4 (11747438_a_at) / RFU KRT8 (11758183_x_at) / Fold change /veh KRT8 (11758183_x_at) / RFU CNN1 (11734310_a_at) / Fold change /veh CNN1 (11734310_a_at) / RFU VPS37D (11726825_at) / Fold change /veh VPS37D (11726825_at) / RFU C10orf10 (11716522_x_at) / Fold change /veh C10orf10 (11716522_x_at) / RFU KIR2DL2 /// KIR2DL4 /// KIR2DL5A /// KIR2DL5B /// KIR2DS1 /// KIR2DS2 /// KIR2DS3 /// KIR2DS4 /// KIR3DL3 /// KIR3DL3 /// KIR3DS1 (11738374_at) / Fold change /veh KIR2DL2 /// KIR2DL4 /// KIR2DL5A /// KIR2DL5B /// KIR2DS1 /// KIR2DS2 /// KIR2DS3 /// KIR2DS4 /// KIR3DL3 /// KIR3DL3 /// KIR3DS1 (11738374_at) / RFU C1QL1 (11718748_at) / Fold change /veh C1QL1 (11718748_at) / RFU TMPRSS4 (11747572_a_at) / Fold change /veh TMPRSS4 (11747572_a_at) / RFU HAMP (11756126_x_at) / Fold change /veh HAMP (11756126_x_at) / RFU RNFT2 (11725882_a_at) / Fold change /veh RNFT2 (11725882_a_at) / RFU NR4A2 (11747474_a_at) / Fold change /veh NR4A2 (11747474_a_at) / RFU ABCC12 (11746883_a_at) / Fold change /veh ABCC12 (11746883_a_at) / RFU TMEM136 (11760407_x_at) / Fold change /veh TMEM136 (11760407_x_at) / RFU CLDN22 /// WWC2 (11732394_at) / Fold change /veh CLDN22 /// WWC2 (11732394_at) / RFU HLA-DPB1 (11760878_x_at) / Fold change /veh HLA-DPB1 (11760878_x_at) / RFU SPINT1 (11716480_a_at) / Fold change /veh SPINT1 (11716480_a_at) / RFU GAP43 (11754022_s_at) / Fold change /veh GAP43 (11754022_s_at) / RFU A4GNT (11735810_at) / Fold change /veh A4GNT (11735810_at) / RFU PRB3 (11715151_x_at) / Fold change /veh PRB3 (11715151_x_at) / RFU TUBB4B (11761932_at) / Fold change /veh TUBB4B (11761932_at) / RFU CAPN14 (11732068_a_at) / Fold change /veh CAPN14 (11732068_a_at) / RFU TMCC2 (11721928_a_at) / Fold change /veh TMCC2 (11721928_a_at) / RFU IRGQ (11745062_a_at) / Fold change /veh IRGQ (11745062_a_at) / RFU FAM174B (11720279_a_at) / Fold change /veh FAM174B (11720279_a_at) / RFU TMPRSS4 (11748680_a_at) / Fold change /veh TMPRSS4 (11748680_a_at) / RFU FAM212B (11763350_a_at) / Fold change /veh FAM212B (11763350_a_at) / RFU PLEKHG5 (11743358_a_at) / Fold change /veh PLEKHG5 (11743358_a_at) / RFU ZSCAN30 (11745921_a_at) / Fold change /veh ZSCAN30 (11745921_a_at) / RFU CMKLR1 (11741424_a_at) / Fold change /veh CMKLR1 (11741424_a_at) / RFU LOC101060620 /// MAPK8IP1 (11723275_at) / Fold change /veh LOC101060620 /// MAPK8IP1 (11723275_at) / RFU SPTSSB (11747773_x_at) / Fold change /veh SPTSSB (11747773_x_at) / RFU PRSS12 (11739890_at) / Fold change /veh PRSS12 (11739890_at) / RFU BIN1 (11741810_x_at) / Fold change /veh BIN1 (11741810_x_at) / RFU WNT11 (11732464_a_at) / Fold change /veh WNT11 (11732464_a_at) / RFU C10orf10 (11716521_a_at) / Fold change /veh C10orf10 (11716521_a_at) / RFU C5orf56 (11738089_at) / Fold change /veh C5orf56 (11738089_at) / RFU CYB561 (11721691_x_at) / Fold change /veh CYB561 (11721691_x_at) / RFU ANKRD19P (11752326_a_at) / Fold change /veh ANKRD19P (11752326_a_at) / RFU OR2T12 /// OR2T33 /// OR2T8 (11738714_s_at) / Fold change /veh OR2T12 /// OR2T33 /// OR2T8 (11738714_s_at) / RFU VCAN (11748164_a_at) / Fold change /veh VCAN (11748164_a_at) / RFU JSRP1 (11732532_at) / Fold change /veh JSRP1 (11732532_at) / RFU KRTAP10-11 (11738290_x_at) / Fold change /veh KRTAP10-11 (11738290_x_at) / RFU MYO3A (11730013_a_at) / Fold change /veh MYO3A (11730013_a_at) / RFU EBF3 (11725865_a_at) / Fold change /veh EBF3 (11725865_a_at) / RFU CAMK2N1 (11719241_x_at) / Fold change /veh CAMK2N1 (11719241_x_at) / RFU C5orf56 (11738088_a_at) / Fold change /veh C5orf56 (11738088_a_at) / RFU OLFML3 (11715873_a_at) / Fold change /veh OLFML3 (11715873_a_at) / RFU LOC100653217 /// NTM (11731650_a_at) / Fold change /veh LOC100653217 /// NTM (11731650_a_at) / RFU MAPK11 (11762145_a_at) / Fold change /veh MAPK11 (11762145_a_at) / RFU FIZ1 (11724087_x_at) / Fold change /veh FIZ1 (11724087_x_at) / RFU OASL (11726364_x_at) / Fold change /veh OASL (11726364_x_at) / RFU SOX15 (11748057_x_at) / Fold change /veh SOX15 (11748057_x_at) / RFU CD79A (11719716_a_at) / Fold change /veh CD79A (11719716_a_at) / RFU HIST1H1D (11736915_at) / Fold change /veh HIST1H1D (11736915_at) / RFU CASKIN2 (11723855_a_at) / Fold change /veh CASKIN2 (11723855_a_at) / RFU LOC730098 (11760151_x_at) / Fold change /veh LOC730098 (11760151_x_at) / RFU OR4N2 (11742367_at) / Fold change /veh OR4N2 (11742367_at) / RFU PRRT2 (11749266_a_at) / Fold change /veh PRRT2 (11749266_a_at) / RFU SNX32 (11753110_a_at) / Fold change /veh SNX32 (11753110_a_at) / RFU CDHR5 (11726645_a_at) / Fold change /veh CDHR5 (11726645_a_at) / RFU RCAN1 (11760418_a_at) / Fold change /veh RCAN1 (11760418_a_at) / RFU FAM167A (11723789_a_at) / Fold change /veh FAM167A (11723789_a_at) / RFU FAM26E (11764081_at) / Fold change /veh FAM26E (11764081_at) / RFU ISYNA1 (11749810_s_at) / Fold change /veh ISYNA1 (11749810_s_at) / RFU ACY1 (11761880_at) / Fold change /veh ACY1 (11761880_at) / RFU 11764098_at / Fold change /veh 11764098_at / RFU SAMD14 (11745864_x_at) / Fold change /veh SAMD14 (11745864_x_at) / RFU NPB (11741838_a_at) / Fold change /veh NPB (11741838_a_at) / RFU TMPRSS6 (11731388_a_at) / Fold change /veh TMPRSS6 (11731388_a_at) / RFU KRTAP10-2 (11738614_at) / Fold change /veh KRTAP10-2 (11738614_at) / RFU ARHGAP8 /// PRR5-ARHGAP8 (11727945_x_at) / Fold change /veh ARHGAP8 /// PRR5-ARHGAP8 (11727945_x_at) / RFU KRTAP5-7 /// NADSYN1 (11734609_at) / Fold change /veh KRTAP5-7 /// NADSYN1 (11734609_at) / RFU RASL12 (11751679_a_at) / Fold change /veh RASL12 (11751679_a_at) / RFU CDKN2B (11736163_a_at) / Fold change /veh CDKN2B (11736163_a_at) / RFU PRF1 (11729649_at) / Fold change /veh PRF1 (11729649_at) / RFU, ZNF638 /// ZNF638-IT1 / Fold change vs veh, ZNF638 /// ZNF638-IT1 / RFU, PANK3 / Fold change vs veh, PANK3 / RFU, SH3YL1 / Fold change vs veh, SH3YL1 / RFU, ZEB2 / Fold change vs veh, ZEB2 / RFU, NRIP1 / Fold change vs veh, NRIP1 / RFU, PTTG1IP / Fold change vs veh, PTTG1IP / RFU, CAPN2 / Fold change vs veh, CAPN2 / RFU, MED14 / Fold change vs veh, MED14 / RFU, SNORA58 / Fold change vs veh, SNORA58 / RFU, C1orf63 / Fold change vs veh, C1orf63 / RFU, LRRFIP1 / Fold change vs veh, LRRFIP1 / RFU, NDUFAF7 / Fold change vs veh, NDUFAF7 / RFU, SLC12A2 / Fold change vs veh, SLC12A2 / RFU, IBTK / Fold change vs veh, IBTK / RFU, ESF1 / Fold change vs veh, ESF1 / Fold change vs veh, TMEM50B / RFU, TAOK1 / Fold change vs veh, TAOK1 / RFU, ACBD3 / Fold change vs veh, ACBD3 / RFU, TMA16 / Fold change vs veh, TMA16 / RFU, RWDD3 / Fold change vs veh, RWDD3 / RFU, BCAT1 / Fold change vs veh, BCAT1 / RFU, EDEM3 / Fold change vs veh, EDEM3 / RFU, TMEM33 / Fold change vs veh, TMEM33 / RFU, WDR75 / Fold change vs veh, WDR75 / RFU, AHCTF1 / Fold change vs veh, AHCTF1 / RFU, TFRC / Fold change vs veh, TFRC / RFU, ZDHHC17 / Fold change vs veh, ZDHHC17 / RFU, NOM1 / Fold change vs veh, NOM1 / RFU, ARL8B / Fold change vs veh, ARL8B / RFU, ZBTB11 / Fold change vs veh, ZBTB11 / RFU, TAMM41 / Fold change vs veh, TAMM41 / RFU, KIAA1704 /// LOC100996395 / Fold change vs veh, KIAA1704 /// LOC100996395 / RFU, ING1 / Fold change vs veh, ING1 / RFU, TRMT61B / Fold change vs veh, TRMT61B / RFU, FUBP3 / Fold change vs veh, FUBP3 / RFU, TP53 / Fold change vs veh, TP53 / RFU, TNKS2 / Fold change vs veh, TNKS2 / RFU, ZFP14 / Fold change vs veh, ZFP14 / RFU, ACTR2 / Fold change vs veh, ACTR2 / RFU, PPP3R1 / Fold change vs veh, PPP3R1 / RFU, PIK3R1 / Fold change vs veh, PIK3R1 / RFU, HNRNPA1 / Fold change vs veh, HNRNPA1 / RFU, RNF170 / Fold change vs veh, RNF170 / RFU, ZNF28 / Fold change vs veh, ZNF28 / RFU, RNGTT / Fold change vs veh, RNGTT / RFU, OGT / Fold change vs veh, OGT / RFU, BRD1 / Fold change vs veh, BRD1 / RFU, MARS / Fold change vs veh, MARS / RFU, ZNF655 / Fold change vs veh, ZNF655 / RFU, FAHD1 / Fold change vs veh, FAHD1 / RFU, BDP1 / Fold change vs veh, BDP1 / RFU, LRRCC1 / Fold change vs veh, LRRCC1 / RFU, ARID1A / Fold change vs veh, ARID1A / RFU, ZNF146 / Fold change vs veh, ZNF146 / RFU, ZNF330 / Fold change vs veh, ZNF330 / RFU, GPN3 / Fold change vs veh, GPN3 / RFU, C9orf123 / Fold change vs veh, C9orf123 / RFU, N4BP2L2 / Fold change vs veh, N4BP2L2 / RFU, ARFIP1 / Fold change vs veh, ARFIP1 / RFU, FAM179B / Fold change vs veh, FAM179B / RFU, BCL10 / Fold change vs veh, BCL10 / RFU, UHRF1BP1L / Fold change vs veh, UHRF1BP1L / RFU, BET1 / Fold change vs veh, BET1 / RFU, CNOT2 / Fold change vs veh, CNOT2 / RFU, ZNF268 / Fold change vs veh, ZNF268 / Fold change vs veh, ZNF507 / RFU, DGCR2 / Fold change vs veh, DGCR2 / RFU, WDSUB1 / Fold change vs veh, WDSUB1 / Fold change vs veh, HSP90B1 /// MIR3652 / RFU, ADSS / Fold change vs veh, ADSS / RFU, GK / Fold change vs veh, GK / RFU, ZNF148 / Fold change vs veh, ZNF148 / RFU, TAF9 / Fold change vs veh, TAF9 / RFU, SLC1A5 / Fold change vs veh, SLC1A5 / RFU, SLMO2 / Fold change vs veh, SLMO2 / RFU, ABCC4 / Fold change vs veh, ABCC4 / RFU, LOC101060439 /// RAP1B / Fold change vs veh, LOC101060439 /// RAP1B / RFU, RFX7 / Fold change vs veh, RFX7 / RFU, GTPBP10 / Fold change vs veh, GTPBP10 / RFU, CNEP1R1 / Fold change vs veh, CNEP1R1 / RFU, BIVM-ERCC5 /// ERCC5 / Fold change vs veh, BIVM-ERCC5 /// ERCC5 / RFU, ILF3 / Fold change vs veh, ILF3 / RFU 11762660_at / Fold change /veh 11762660_at / RFU VCAN (11757783_s_at) / Fold change /veh VCAN (11757783_s_at) / RFU DDX43 (11728927_at) / Fold change /veh DDX43 (11728927_at) / RFU KRT8 (11758188_x_at) / Fold change /veh KRT8 (11758188_x_at) / RFU NKD1 (11759106_at) / Fold change /veh NKD1 (11759106_at) / RFU SRD5A1 (11742802_a_at) / Fold change /veh SRD5A1 (11742802_a_at) / RFU TPSAB1 /// TPSB2 (11721975_s_at) / Fold change /veh TPSAB1 /// TPSB2 (11721975_s_at) / RFU GSTM3 (11746129_a_at) / Fold change /veh GSTM3 (11746129_a_at) / RFU IL23R (11737362_x_at) / Fold change /veh IL23R (11737362_x_at) / RFU TMEM51 (11727254_a_at) / Fold change /veh TMEM51 (11727254_a_at) / RFU PIWIL2 (11732686_x_at) / Fold change /veh PIWIL2 (11732686_x_at) / RFU ORM1 (11744905_x_at) / Fold change /veh ORM1 (11744905_x_at) / RFU CCDC152 (11743942_at) / Fold change /veh CCDC152 (11743942_at) / RFU ECM1 (11717891_a_at) / Fold change /veh ECM1 (11717891_a_at) / RFU IL23R (11748794_a_at) / Fold change /veh IL23R (11748794_a_at) / RFU TNFAIP8L3 (11732012_x_at) / Fold change /veh TNFAIP8L3 (11732012_x_at) / RFU MBOAT4 (11741988_at) / Fold change /veh MBOAT4 (11741988_at) / RFU 11764193_at / Fold change /veh 11764193_at / RFU TMEM53 (11763286_at) / Fold change /veh TMEM53 (11763286_at) / RFU MAGEB2 (11727129_at) / Fold change /veh MAGEB2 (11727129_at) / RFU TMEM200A (11744735_a_at) / Fold change /veh TMEM200A (11744735_a_at) / RFU CCDC152 (11751479_a_at) / Fold change /veh CCDC152 (11751479_a_at) / RFU FAM211A (11726209_a_at) / Fold change /veh FAM211A (11726209_a_at) / RFU RGS16 (11746705_a_at) / Fold change /veh RGS16 (11746705_a_at) / RFU VCAN (11755009_s_at) / Fold change /veh VCAN (11755009_s_at) / RFU RHOB (11743442_s_at) / Fold change /veh RHOB (11743442_s_at) / RFU RGS16 (11720943_a_at) / Fold change /veh RGS16 (11720943_a_at) / RFU RGS16 (11720944_at) / Fold change /veh RGS16 (11720944_at) / RFU, VPS4B / Fold change vs veh, VPS4B / RFU, CREB1 / Fold change vs veh, CREB1 / RFU, DNAJC13 / Fold change vs veh, DNAJC13 / RFU, GNAQ / Fold change vs veh, GNAQ / RFU, CDK5R1 / Fold change vs veh, CDK5R1 / RFU, ZRANB3 / Fold change vs veh, ZRANB3 / RFU, CUL4A / Fold change vs veh, CUL4A / RFU, CCNY / Fold change vs veh, CCNY / RFU, UFL1 / Fold change vs veh, UFL1 / RFU, COG3 / Fold change vs veh, COG3 / RFU, DIAPH2 / Fold change vs veh, DIAPH2 / RFU, SKA2 / Fold change vs veh, SKA2 / RFU, AFF3 / Fold change vs veh, AFF3 / RFU, LMF1 / Fold change vs veh, LMF1 / RFU, IPO11 / Fold change vs veh, IPO11 / RFU, DFFB / Fold change vs veh, DFFB / RFU, FOXP1 / Fold change vs veh, FOXP1 / RFU, CARD8 / Fold change vs veh, CARD8 / RFU, STRN3 / Fold change vs veh, STRN3 / RFU, ADK / Fold change vs veh, ADK / RFU, RASSF2 / Fold change vs veh, RASSF2 / RFU, WIPF1 / Fold change vs veh, WIPF1 / RFU, LARP1B / Fold change vs veh, LARP1B / RFU, RASA1 / Fold change vs veh, RASA1 / RFU, RB1 / Fold change vs veh, RB1 / RFU, PPFIA1 / Fold change vs veh, PPFIA1 / RFU, MAT2A / Fold change vs veh, MAT2A / RFU, CCT5 / Fold change vs veh, CCT5 / RFU, WDR92 / Fold change vs veh, WDR92 / RFU, CUX1 / Fold change vs veh, CUX1 / RFU, TTC7A / Fold change vs veh, TTC7A / RFU, TMEM135 / Fold change vs veh, TMEM135 / RFU, DEPTOR / Fold change vs veh, DEPTOR / RFU, CPM / Fold change vs veh, CPM / RFU, DNAJB6 / Fold change vs veh, DNAJB6 / RFU, CACNA2D3 / Fold change vs veh, CACNA2D3 / RFU, DTX4 / Fold change vs veh, DTX4 / RFU, TFCP2 / Fold change vs veh, TFCP2 / RFU, GMCL1 /// GMCL1P1 / Fold change vs veh, GMCL1 /// GMCL1P1 / RFU, AEBP2 / Fold change vs veh, AEBP2 / RFU, SNHG1 /// SNORD22 /// SNORD25 /// SNORD26 /// SNORD27 /// SNORD28 /// SNORD29 /// SNORD31 / Fold change vs veh, SNHG1 /// SNORD22 /// SNORD25 /// SNORD26 /// SNORD27 /// SNORD28 /// SNORD29 /// SNORD31 / Fold change (Aza/veh), C12orf56 (ProbeSet 11735607_a_at) / Fold change (ACY-1035/veh), C12orf56 (ProbeSet 11735607_a_at) / Fold change (Aza/veh), FGFR1OP (ProbeSet 11751329_s_at) / Fold change (ACY-1035/veh), FGFR1OP (ProbeSet 11751329_s_at) / Fold change (Aza/veh), VPS36 (ProbeSet 11739960_a_at) / Fold change (ACY-1035/veh), VPS36 (ProbeSet 11739960_a_at) / RFU SYPL1 (11715823_x_at) / Fold change /veh SYPL1 (11715823_x_at) / RFU IGFBP7 (11715501_s_at) / Fold change /veh IGFBP7 (11715501_s_at) / RFU REEP3 (11722064_at) / Fold change /veh REEP3 (11722064_at) / RFU IGLL1 (11728026_x_at) / Fold change /veh IGLL1 (11728026_x_at): dose or concentration left out as unconfirmed
Settings: ProbeSet 11727827_x_at; LIST B

Structure (SMILES): Nc1ncn([C@@H]2O[C@H](CO)[C@@H](O)[C@H]2O)c(=O)n1 [azacitidine]
- RFU, NDUFAF7: 58.08 RFU
